{"source": "patent US11771676B2", "about": "“Method for preparing high-load oral paclitaxel capsule for slow release in colon” (Jiangnan University, priority 2022, dated 2023)", "test": "Determination of stability in upper digestive tract and simulated colonic release (SGF, SIF, SCF; dialysis bag, UV 230 nm)", "format": "physicochemical", "conditions": "cumulative release after SGF and SIF", "protocol": "6. Determination of Stability in Upper Digestive Tract and Simulated Colonic Release\nA simulated gastric fluid (SGF, a pH of 1.2) consists of 2.95 g/L of sodium chloride and 8 ml/L of hydrochloric acid. A paclitaxel capsule (1 mg/ml of paclitaxel (dry weight)) is added to the SGF containing 3.2 g/L of pepsin and placed in a sealed dialysis bag (8,000-14,000 Da), then the dialysis bag is soaked in the SGF containing 3% (v/w) Tween-20 and stirred at 100 rpm at 37±0.5° C., and 2 ml of a release medium is withdrawn at 30 min, 60 min, 90 min, and 120 min respectively. An equal volume of the fresh SGF is added to maintain a volume after each sampling.\nA pH value of the SGF system is adjusted to 6.8 with disodium hydrogen phosphate and a fresh porcine trypsin solution at 30 mg/mL is added into the dialysis bag to obtain a simulated intestinal fluid (SIF). 2 ml of a release medium is taken out at 30 min, 60 min, 90 min, and 120 min respectively and a concentration of paclitaxel is determined. An equal volume of the fresh release medium is added to maintain a volume after each sampling. […]\nThe concentration of paclitaxel is measured with an ultraviolet spectrophotometer at a wavelength of 230 nm."}
{"molecule": "CC(=O)O[C@H]1C(=O)[C@@]2(C)[C@H]([C@H](OC(=O)c3ccccc3)[C@]3(O)C[C@H](OC(=O)[C@H](O)[C@@H](NC(=O)c4ccccc4)c4ccccc4)C(C)=C1C3(C)C)[C@]1(OC(C)=O)CO[C@@H]1C[C@@H]2O", "note": "[raw paclitaxel, paclitaxel]", "values": [{"measurement": "release amount (dissolution rate) in a stomach-small intestine", "value": "about 25%"}]}
